Experimental data: patent US7524816B2, “Peptides and supported peptides for treating skin diseases” (Genencor International, Inc., priority 2003, dated 2009)
Positions of bridges follow the written chain, without caps; N, C: chain ends. Residues, ends and D or L forms follow the SMILES beside them.

Columns and labels:
Human VEGF165 [1] = target: T1, Human VEGF165 (Homo sapiens, UniProt P15692); experiment: BIAcore surface plasmon resonance binding analysis of VEGF binding peptides
T1 construct: purchased Biosource
T1 sequence (P15692 27-191 isoform P15692-4): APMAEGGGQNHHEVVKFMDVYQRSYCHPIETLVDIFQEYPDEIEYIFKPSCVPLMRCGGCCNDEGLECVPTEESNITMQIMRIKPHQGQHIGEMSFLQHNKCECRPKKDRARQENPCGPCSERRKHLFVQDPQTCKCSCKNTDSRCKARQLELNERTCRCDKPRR
Experimental: FIG. 3 provides results of a BIACORE binding analysis of VEGF binding peptides. Binding curves were obtained as described in the Examples. […]
In this Example, experiments conducted to assess the affinities of the peptides for VEGF are described. Affinities of the peptides for VEGF were measured using a BIAcore™-3000 surface plasmon resonance system (Biacore). A CM5 sensor chip was conditioned with 50 mM NaOH, 0.1% HCl, 0.1% SDS, and 0.08% H3PO4, and activated for covalent coupling of […] using N-ethyl-N′-(3-dimethylaminopropyl)-carbodiimide hydrochloride (EDC) and N-hydroxysuccinimide (NHS) according to the supplier's instructions (Biacore). Human VEGF165 (Biosource) was diluted to 5 μg/ml in 20 mM sodium acetate, pH 4.8 and injected at a flow rate of 2 μl/min to achieve approximately 1000 to 6000 response units (RU) of coupled protein. TNF[…] (human TNF[…], Biosource, Int., Camarillo, Calif.) was similarly coupled to the CM5 sensor chip to approximately 850 to 3500 RU in the reference lane. A solution of 1 M ethanolamine was injected as a blocking agent. In some experiments, an additional solution of EDC and NHS were injected to improve baseline stability and a solution of 1 M ethanolamine injected as a blocking agent. The reference lane is activated with EDC and NHS and blocked with ethanolamine.
Peptides were synthesized using standard FMOC chemistry, purified by reverse phase HPLC to >95% purity (SynPep), and stored at 10 mg/mL in DMSO. For kinetic measurements, twofold serial diluted peptides in HBS-EP buffer, 0.01 M HEPES pH 7.4, 0.15 M NaCl, 3 mM EDTA, 0.005% Surfactant P20 (Biacore), were injected at 25° C. at a flow rate of 20 μL/min. Two-fold serial diluted DMSO samples and buffer samples were also injected for background subtraction. Kinetic parameters were calculated using BIAevaluation 3.1 software.

[2] = tested on: human umbilical vein endothelial cells (HUVEC); experiment: In vitro HUVEC proliferation assay (MTS) of hVEGF inhibitory peptides; type: cell-based; conditions: 10 ng/ml VEGF, 48 hrs
Experimental: In this Example, experiments conducted to determine the anti-proliferative activity of anti-VEG peptides are described. The antiproliferative activity of VEGF inhibitory peptides was determined using human umbilical vein endothelial cells (HUVEC) as follows. An early passage (less than six) of HUVEC was seeded in 96-well plates at 5000 cells per well and starved for 18 hrs in 200 μl EBM medium (Cambrex) without growth factors and supplemented with 0.5% FBS, at 37° C. with 5% CO2. The medium was replaced with 180 μl of growth medium containing EBM medium with 5% fetal bovine serum and 1% DMSO. Then, 20 μl of VEGF preincubated for one hour with varying peptide concentrations (the final DMSO concentration of all the wells was 1%) were added to the wells for a final VEGF concentration of 10 ng/ml. Human VEGF antibody (R & D Systems) was used as a positive control. Cells with 0.31 to 20 ng/ml concentrations of VEGF alone in the growth medium were used to construct a standard growth curve. The cells were further incubated for 48 hrs, and the cell proliferation was measured using an MTS assay (CellTiter 96 Aqueous One Solution Cell Proliferation Assay Kit; Promega). Then, 40 μl of the MTS tetrazolium solution was added to each well and after 3 and 4 hours incubation, the plates were read at 490 nm. The absorption of media alone was subtracted from all data points.

[3] = Repeat insult patch test (RIPT) on human skin; type: in vivo; conditions: 0.5% (w/v) in deionized water/butylene glycol; approximately 0.2 mL; 200 human volunteers
Experimental: In this Example, experiments conducted to determine the patch test result for anti-VEGF peptides are described. Samples of the aVEGF peptide CK37281 dosed at 0.5% (w/v) were formulated in a base formulation containing deionized water/butylene glycol. Approximately 0.2 mL of the formulation was applied to 200 human volunteers in a repeated insult patch test according to procedures designed by Clinical Research Laboratories, Inc. (Piscataway, N.J.).

Human VEGF165 [4] = target: T1, Human VEGF165; experiment: BIAcore binding analysis of BBI-VEGF constructs; conditions: trypsin and chymotrypsin coupled in remaining lanes
Experimental: In this Example, experiments conducted to determine the binding affinity of constructs produced as indicated in Example 9 are described. Affinities of BBI-VEGF constructs for VEGF were measured using BLAcore-3000 surface plasmon resonance (Biacore). A CM5 sensor chip was conditioned with 50 mM NaOH and activated for covalent coupling of VEGF using N-ethyl-N′-3-dimethylaminopropyl)-carbodiimide hydrochloride (EDC) and N-hydroxysuccinimide (NHS) according to the supplier's instructions (Biacore). VEGF (human VEGF165, Biosource) was diluated to 5 μg/mL in 20 mM sodium acetate, pH 4.8, and injected at a flow rate of 2 μL/min to achieve approximately 1000 to 6000 response units (RU) of coupled protein. Trypsin and chymotrypsin were similarly coupled to the CM5 sensor chip to approximately 850 to 3500 RU in remaining lanes. A solution of 1 M ethanolamine was injected as a blocking agent.

[5] = two state reaction model with conformation change

| kd1 (Human VEGF165 [1]; 1:1 Langmuir binding fit, 1000 RU VEGF, 850 RU TNF) [s⁻¹] | ka2 (Human VEGF165 [1]; [5]) [s⁻¹] | kd1 (Human VEGF165 [1]; [5]) [s⁻¹] | binding to VEGF (Human VEGF165 [4]) | binding to VEGF (Human VEGF165 [4]; listed as BBI-VEGF) | Molecule | IC50 antiproliferative activity [2] | dermal irritation or sensitization [3] |
| --- | --- | --- | --- | --- | --- | --- | --- |
| 0.167 | – | – | – | – | CC[C@H](C)[C@@H]1NC(=O)[C@H](CC(=O)O)NC(=O)[C@@H](NC(=O)[C@H](CC(N)=O)NC(=O)[C@@H]2CCCN2C(=O)[C@H](CCC(=O)O)NC(=O)[C@@H](N)C(C)C)CSSC[C@@H](C(=O)N[C@@H](Cc2ccccc2)C(=O)N[C@@H](CCC(=O)O)C(=O)N[C@@H](CCCNC(=N)N)C(=O)N[C@@H](CC(C)C)C(N)=O)NC(=O)[C@H](CCC(=O)O)NC(=O)[C@H](Cc2c[nH]c3ccccc23)NC(=O)[C@H](CCC(=O)O)NC(=O)[C@H](Cc2c[nH]c3ccccc23)NC(=O)[C@H](CCSC)NC(=O)[C@H](C(C)C)NC(=O)[C@H](Cc2c[nH]cn2)NC1=O [v114, reference compound] (H-VEPNCDIHVMWEWECFERL-NH2; disulfide 5-15; N-terminus and C-terminus assumed) | – | – |
| – | 0.00634 | 0.318 | – | – | CC(C)C[C@@H]1NC(=O)[C@H](CC(N)=O)NC(=O)[C@@H](NC(=O)[C@H](C)N)CSSC[C@@H](C(=O)NCC(=O)NCC(=O)NCC(=O)O)NC(=O)[C@H](Cc2c[nH]c3ccccc23)NC(=O)[C@H](Cc2ccccc2)NC(=O)[C@H](Cc2c[nH]cn2)NC(=O)[C@@H]2CCCN2C(=O)[C@H](Cc2c[nH]c3ccccc23)NC1=O [CK37283, NLWPHFW] | in the micromolar range | – |
| – | 0.0015 | 0.0122 | – | – | CC(C)C[C@@H]1NC(=O)[C@H](CC(N)=O)NC(=O)[C@H](Cc2ccc(O)cc2)NC(=O)[C@@H](NC(=O)[C@H](C)N)CSSC[C@@H](C(=O)NCC(=O)NCC(=O)NCC(=O)O)NC(=O)[C@H]([C@@H](C)O)NC(=O)[C@H](Cc2c[nH]c3ccccc23)NC(=O)CNC(=O)[C@H](Cc2ccc(O)cc2)NC1=O [CK37281] (H-ACYNLYGWTCGGG-OH; disulfide 2-10 (inferred); N-terminus and C-terminus assumed) | in the micromolar range | no dermal irritation or sensitization |
| – | – | – | binds specifically to VEGF | Selective binding affinity to VEGF | BBI-VEGF1: Bowman-Birk inhibitor fusion with one binding loop replaced by anti-VEGF peptide (protein, synthetic BBI-VEGF1 fusion protein) DDESSKPCCDQCACYNLYGWTCRCSDMRLNSCHSACKSCICALSYPAQCFCVDITDFCYEPCKPSEDDKEN | – | – |
